# Values of other authors as cited in patent publication US20250099360A1 (Goodier Cosmetics, LLC, priority 2023, published 2025).
# Test system: UV-B-induced lipid peroxidation
# Details: UV-B radiation
structure (smiles),measurement,value
CCCCCCCCCCCCCCCC(=O)OC[C@H](O)[C@H]1OC(=O)C(O)=C1O [ascorbyl palmitate],effect on UV-B-induced lipid peroxidation,promotes UV-B-induced lipid peroxidation
